Source: ChEMBL document CHEMBL3886469, “Pyrrolo pyrimidine derivatives” (2016)

Tests used:
[1] = target: T1, Tyrosine-protein kinase BTK (Homo sapiens, UniProt Q06187); assay: Biochemical Enzyme Assay: The inhibitory activity of the present compounds against Btk was assessed in a biochemical enzyme assay. Assay plates in 384 well format were prepared with 8-point serial dilutions for the test compounds on a Thermo CatX workstation equipped with a Innovadyne Nanodrop Express. The assay plates were prepared by addition of 50 nl per well of compound solution in 90% DMSO. The kinase reactions were started by stepwise addition of 4.5 ul per well of peptide/ATP-solution (4 uM FITC-Ahx-[…]-NH2, 164 uM ATP) in kinase buffer (50 mM HEPES, pH 7.5, 1 mM DTT, 0.02% Tween20, 0.02% BSA, 0.6% DMSO, 10 mM beta-glycerophosphate, and 10 uM sodium orthovanadate, 18 mM MgCl2, 1 mM MnCl2) and 4.5 ul per well of enzyme solution (6.4 nM full-length human recombinant BTK) in kinase buffer. Kinase reactions were incubated at 30° C. for 60 minutes and subsequently terminated by addition of 16 ul per well of stop solution (100 mM HEPES pH 7.5, 5% DMSO, 0.1% Caliper coating reagent, 10 mM EDTA, and 0.015% Brij35). Kinase reactions were analyzed on a Caliper LC3000 workstation by separating phosphorylated and unphosphorylated peptides and kinase activities were calculated from the amounts of newly formed phospho-peptide. Inhibition data were calculated by comparison to control reactions without enzyme (100% inhibition) and without inhibitors (0% inhibition).
[2] = target: T1, Tyrosine-protein kinase BTK; assay: Cellular Assay: Alternatively, the present compounds might also be assessed for their capacity to inhibit Btk-dependent FcG receptor-induced IL-8 secretion in human cells. The human myeloid leukemia THP1 cell line (ATCC TIB202) was grown in RPMI 1640 medium supplemented with 10% FCS and 15 nM 1, 25-dihydroxy Vitamin D3 during 4 days before use to induced myeloid differentiation. A sufficient number of tissue-culture grade 384-well plates was coated with human IgG of unknown specificity by incubating overnight at 4° C. with 40 ul/well of a 50 ug/ml IgG solution in PBS. On the day of the experiment, plates were washed 5 times with 80 ul water on a Molecular Devices Aquamax DW4 plate washer. Solutions of the test compounds in 90% DMSO were added to each well on a Hamilton Microlab Star liquid handling station to 40 ul/well tissue culture medium and the total DMSO concentration was adjusted to 0.1%. Differentiated THP1 cells were then added in 40 ul/well to reach a final density of 5'000 cells/well in 80 ul culture medium. After 24 hours, IL-8 secretion was measured in the supernatant by the IL-8 HTRF assay following the protocol of the vendor (CisBio international).; assay type: cell-based, THP-1

T1 sequence (Q06187 whole entry): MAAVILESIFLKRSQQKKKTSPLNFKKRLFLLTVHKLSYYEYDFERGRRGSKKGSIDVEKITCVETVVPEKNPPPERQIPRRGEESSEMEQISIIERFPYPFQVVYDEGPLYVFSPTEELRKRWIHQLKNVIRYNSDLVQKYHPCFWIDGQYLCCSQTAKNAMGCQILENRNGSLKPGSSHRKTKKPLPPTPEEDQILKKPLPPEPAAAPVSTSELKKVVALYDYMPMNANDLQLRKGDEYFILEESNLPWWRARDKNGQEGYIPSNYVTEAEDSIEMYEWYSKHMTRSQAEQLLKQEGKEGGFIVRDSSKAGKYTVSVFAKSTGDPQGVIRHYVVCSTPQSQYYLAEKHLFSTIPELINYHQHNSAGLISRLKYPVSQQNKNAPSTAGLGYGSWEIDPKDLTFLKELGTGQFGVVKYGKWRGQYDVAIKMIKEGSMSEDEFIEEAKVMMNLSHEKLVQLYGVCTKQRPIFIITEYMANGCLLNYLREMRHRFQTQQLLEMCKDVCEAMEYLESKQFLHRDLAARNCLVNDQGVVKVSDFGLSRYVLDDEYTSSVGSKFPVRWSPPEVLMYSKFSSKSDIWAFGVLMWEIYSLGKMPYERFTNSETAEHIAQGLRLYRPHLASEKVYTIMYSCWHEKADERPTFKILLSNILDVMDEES

## C=C(C)c1ccc(C(=O)Nc2cc(F)cc(-c3ncnc4[nH]c(C5=CCN(C(=O)N(C)C)CC5)cc34)c2C)cc1
[1]
  IC50: 3 nM

## Cc1c(NC(=O)c2ccc(C3CC3)cc2)cc(F)cc1-c1ncnc2[nH]c(C3=CCN(C(=O)CC#N)CC3)cc12
[1]
  IC50: 4 nM

## Cc1c(NC(=O)c2ccc(C(C)(C)C)cc2)cc(F)cc1-c1ncnc2[nH]c(C3=CCC4(CC3)OCCO4)cc12
[1]
  IC50: 110 nM

## Cc1c(NC(=O)c2ccc(C(C)(C)O)cc2F)cc(F)cc1-c1ncnc2[nH]c(C3=CCN(C(=O)N(C)C)CC3)cc12
[1]
  IC50: 13 nM

## Cc1c(NC(=O)c2ccc(C(C)(C)C)cc2)cc(F)cc1-c1ncnc2[nH]c(C3=CCSCC3)cc12
[1]
  IC50: 23 nM
[2]
  IC50: 94 nM
